Patent publication US20050112573A1, “Method of detecting toxic substance” (priority 2001, published 2005)

Test system: yeast genes (level of expressed mRNA)
Test: DNA chip analysis of expressed mRNA of yeast genes after 2 h culture with a toxic chemical substance
Type: cell-based, Saccharomyces cerevisiae S288C
Conditions: for The level of expressed mRNA in the presence of chemical substance/ (ratio to absence of chemical substance): stress protein genes, DNA chip
Method: Yeast (Saccharomyces cerevtisiae S288C (α SUC2mal mel gap2 CUP1)) were cultured at 25° C. on YPD medium (yeast extract 1%, polypepton 2%, glucose 2%). One of toxic chemical substances was added to the cell at logarithmic growth phase, and the cell was further cultured for two hours. Cell was cultured without any chemical substance in the same condition, and was used as control. Concentrations of the chemical substances were defined to inhibit the growth of the yeast but not lead to death.
After the completion of cultivation, the culture was centrifuged to collect the cells. To the cells, sodium acetate buffer (50 mM sodium acetate, 10 mM EDTA, 1% SDS) was added, and the mixture was shaken at 65° C. for five minutes, followed by returning to room temperature, and obtaining the supernatant, which procedure was repeated two times. To the supernatant, ½ amount of a solution of phenol/chloroform was added, and the mixture was centrifuged to give a supernatant, which was added with an equal amount of chloroform, and the mixture was centrifuged to give a supernatant. To the supernatant, an equal amount of isopropanol containing 0.3 M sodium acetate was added, and the mixture was allowed to stand at room temperature for 30 minutes, after which the mixture was centrifuged to give a sediment of the whole RNAs. Seventy % ethanol was added to the sediment, and the mixture was again centrifuged to give a sediment, which was then dried and dissolved in water. mRNA was isolated from the whole RNAs as followings. In view of the fact that a poly A chain is attached to the 3′ terminus of mRNA, a polynucleotide having a poly T structure which was immobilized on the surface of latex beads was used to trap the mRNA, and then the mRNA was washed and eluted with spine column (Oligotex-dT30<Super>mRNA Purification Kit, Takara). Reverse transcription of the mRNA was conducted with a reverse transcriptase (Super Script II Reverse Transcriptase; catalogue No. 18064-014, GibcoBRL) using fluorescence-labeled nucleotides to give cDNAs that were introduced with Cy3-dUTP or Cy5-dUTP during the reverse transcription.
The labeled cDNAs were dissolved in TE buffer (10 mM Tris-HCl/1 mM EDTA, pH8.0), and the solution was dropped on the DNA chip containing the whole genes of yeast (DNA Chip Research Inc. Japan) so that the cDNAs were hybridized on the DNA chip at 65° C. for over 12 hours. The fluoresces intensity of the DNA chip was read with a scanner, and the ratio relative to the fluorescence intensity resulting from the absence of chemical substance was estimated as the following, which is shown in Tables 1 to 9: [formula]
In the Tables, “Intensity” indicated in the rightmost column is a value of the level of expressed mRNA of each gene in control cells as divided by the average level of the expressions of the whole genes.

**Q.** Which results are given for `COc1cc(CNC(=O)CCCCC=CC(C)C)ccc1O` [(12), 8-methyl-N-vanillyl-6-nonenamide]?
**A.** The level of expressed mRNA in the presence of chemical substance/ (in its absence), gene YDR073W (yeast gene YDR073W, ratio of DNA chip fluorescence intensity to that without chemical substance): 0.8; The level of expressed mRNA in the presence of chemical substance/ in its absence, gene YDR079W (yeast gene YDR079W, energy system protein genes, 2 h culture with the chemical, ratio to control without chemical): 1.1; The level of expressed mRNA in the presence of chemical substance/ (ratio to absence), gene YDR079W (yeast gene YDR079W, mitochondria-located protein genes, 2 h culture with chemical): 1.1; The level of expressed mRNA in the presence of chemical substance/The level of expressed mRNA in the absence of chemical substance (yeast gene YDR084C): 0.7; The level of expressed mRNA in the presence of chemical substance/The level of expressed mRNA in the absence of chemical substance (yeast gene YDR085C): 1.6; The level of expressed mRNA in the presence of chemical substance/The level of expressed mRNA in the absence of chemical substance (yeast gene YDR104C): 1.1; The level of expressed mRNA in the presence of chemical substance/The level of expressed mRNA in the absence of chemical substance (yeast gene YDR115W): 0.9; The level of expressed mRNA in the presence of chemical substance/The level of expressed mRNA in the absence of chemical substance (yeast gene YDR259C): 1.0; The level of expressed mRNA in the presence of chemical substance/ (in its absence), gene YDR297W (yeast gene YDR297W, ratio of DNA chip fluorescence intensity to that without chemical substance): 1.0; The level of expressed mRNA in the presence of chemical substance/The level of expressed mRNA in the absence of chemical substance (yeast gene YDR315C): 0.6; The level of expressed mRNA in the presence of chemical substance/The level of expressed mRNA in the absence of chemical substance (yeast gene YDR358W): 1.1; The level of expressed mRNA in the presence of chemical substance/ (ratio to absence), gene YDR377W (yeast gene YDR377W, mitochondria-located protein genes, 2 h culture with chemical): 0.9; The level of expressed mRNA in the presence of chemical substance/ (in its absence), gene YDR387C (yeast gene YDR387C, ratio of DNA chip fluorescence intensity to that without chemical substance): 0.9; The level of expressed mRNA in the presence of chemical substance/The level of expressed mRNA in the absence of chemical substance (yeast gene YDR388W): 0.8; The level of expressed mRNA in the presence of chemical substance/The level of expressed mRNA in the absence of chemical substance (yeast gene YDR406W): 3.9; The level of expressed mRNA in the presence of chemical substance/The level of expressed mRNA in the absence of chemical substance (yeast gene YDR432W): 0.7; The level of expressed mRNA in the presence of chemical substance/The level of expressed mRNA in the absence of chemical substance (yeast gene YDR481C): 0.9; The level of expressed mRNA in the presence of chemical substance/The level of expressed mRNA in the absence of chemical substance (yeast gene YDR510W): 1.4; The level of expressed mRNA in the presence of chemical substance/ (ratio to absence of chemical substance) (yeast gene YEL039C): 0.6; The level of expressed mRNA in the presence of chemical substance/The level of expressed mRNA in the absence of chemical substance (yeast gene YEL042W): 1.0; The level of expressed mRNA in the presence of chemical substance/The level of expressed mRNA in the absence of chemical substance (yeast gene YEL066W): 0.8; The level of expressed mRNA in the presence of chemical substance/ (in its absence), gene YER015W (yeast gene YER015W, ratio of DNA chip fluorescence intensity to that without chemical substance): 0.9; The level of expressed mRNA in the presence of chemical substance/The level of expressed mRNA in the absence of chemical substance (yeast gene YER039C): 0.9; The level of expressed mRNA in the presence of chemical substance/ (ratio to absence of chemical substance) (yeast gene YER057C): 1.5; The level of expressed mRNA in the presence of chemical substance/The level of expressed mRNA in the absence of chemical substance (yeast gene YER107C): 0.7; The level of expressed mRNA in the presence of chemical substance/The level of expressed mRNA in the absence of chemical substance (yeast gene YER130C): 1.0; The level of expressed mRNA in the presence of chemical substance/The level of expressed mRNA in the absence of chemical substance (yeast gene YFL028C): 1.1; The level of expressed mRNA in the presence of chemical substance/The level of expressed mRNA in the absence of chemical substance (yeast gene YFL043C): 0.9; The level of expressed mRNA in the presence of chemical substance/The level of expressed mRNA in the absence of chemical substance (yeast gene YFR015C, two hours culture): 0.4; The level of expressed mRNA in the presence of chemical substance/The level of expressed mRNA in the absence of chemical substance (yeast gene YFR024C): 1.5; The level of expressed mRNA in the presence of chemical substance/ (in its absence), gene YGL035C (yeast gene YGL035C, ratio of DNA chip fluorescence intensity to that without chemical substance): 0.9; The level of expressed mRNA in the presence of chemical substance/ (in its absence), gene YGL115W (yeast gene YGL115W, ratio of DNA chip fluorescence intensity to that without chemical substance): 0.9; The level of expressed mRNA in the presence of chemical substance/ (ratio to absence of chemical substance) (yeast gene YGL115W): 0.9; The level of expressed mRNA in the presence of chemical substance/The level of expressed mRNA in the absence of chemical substance (yeast gene YGL158W): 1.3; The level of expressed mRNA in the presence of chemical substance/ (ratio to absence), gene YGL187C (yeast gene YGL187C, mitochondria-located protein genes, 2 h culture with chemical): 0.8; The level of expressed mRNA in the presence of chemical substance/ (in its absence), gene YGL205W (yeast gene YGL205W, ratio of DNA chip fluorescence intensity to that without chemical substance): 1.1; The level of expressed mRNA in the presence of chemical substance/The level of expressed mRNA in the absence of chemical substance (yeast gene YGL229C): 1.1; The level of expressed mRNA in the presence of chemical substance/The level of expressed mRNA in the absence of chemical substance (yeast gene YGR008C, two hours culture): 2.0; The level of expressed mRNA in the presence of chemical substance/ in its absence, gene YGR062C (yeast gene YGR062C, energy system protein genes, 2 h culture with the chemical, ratio to control without chemical): 1.0; The level of expressed mRNA in the presence of chemical substance/ (ratio to absence), gene YGR062C (yeast gene YGR062C, mitochondria-located protein genes, 2 h culture with chemical): 1.0; The level of expressed mRNA in the presence of chemical substance/ (in its absence), gene YGR096W (yeast gene YGR096W, ratio of DNA chip fluorescence intensity to that without chemical substance): 0.8; The level of expressed mRNA in the presence of chemical substance/The level of expressed mRNA in the absence of chemical substance (yeast gene YGR136W): 1.2; The level of expressed mRNA in the presence of chemical substance/The level of expressed mRNA in the absence of chemical substance (yeast gene YGR189C): 1.3; The level of expressed mRNA in the presence of chemical substance/The level of expressed mRNA in the absence of chemical substance (yeast gene YGR213C): 10.6; The level of expressed mRNA in the presence of chemical substance/The level of expressed mRNA in the absence of chemical substance (yeast gene YGR257C): 0.9; The level of expressed mRNA in the presence of chemical substance/The level of expressed mRNA in the absence of chemical substance (yeast gene YGR281W): 2.4; The level of expressed mRNA in the presence of chemical substance/ (in its absence), gene YGR287C (yeast gene YGR287C, ratio of DNA chip fluorescence intensity to that without chemical substance): 1.1; The level of expressed mRNA in the presence of chemical substance/ (in its absence), gene YGR288W (yeast gene YGR288W, ratio of DNA chip fluorescence intensity to that without chemical substance): 0.9; The level of expressed mRNA in the presence of chemical substance/ (ratio to absence of chemical substance) (yeast gene YHL028W): 1.5; The level of expressed mRNA in the presence of chemical substance/ (ratio to absence of chemical substance) (yeast gene YHL046C): 1.1; The level of expressed mRNA in the presence of chemical substance/The level of expressed mRNA in the absence of chemical substance (yeast gene YHL047C): 2.6; The level of expressed mRNA in the presence of chemical substance/The level of expressed mRNA in the absence of chemical substance (yeast gene YHR004C): 0.9; The level of expressed mRNA in the presence of chemical substance/The level of expressed mRNA in the absence of chemical substance (yeast gene YHR071W): 0.8; The level of expressed mRNA in the presence of chemical substance/The level of expressed mRNA in the absence of chemical substance (yeast gene YHR139C): 1.6; The level of expressed mRNA in the presence of chemical substance/The level of expressed mRNA in the absence of chemical substance (yeast gene YHR142W): 1.3; The level of expressed mRNA in the presence of chemical substance/ (in its absence), gene YHR210C (yeast gene YHR210C, ratio of DNA chip fluorescence intensity to that without chemical substance): 0.5; The level of expressed mRNA in the presence of chemical substance/ (in its absence), gene YIL006W (yeast gene YIL006W, ratio of DNA chip fluorescence intensity to that without chemical substance): 0.9; The level of expressed mRNA in the presence of chemical substance/ (ratio to absence of chemical substance) (yeast gene YIL011W): 0.6
